Measurements from patent US20170190671A1, “BIS(ARYL)CATECHOL DERIVATIVES AS HERBICIDES” (E I DU PONT DE NEMOURS AND COMPANY, priority 2014, published 2017).

Columns and labels:
Assay type in all cases: in vivo
[1] = system: blackgrass (Alopecurus myosuroides); assay: Test C preemergence; conditions: Alopecurus myosuroides, pre-emergence, 336 h, scale 0 to 100, read-out: Plant response rating, Blackgrass
Method in brief: (§1)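 Greenhouse test, preemergence on seeded soil or postemergence on 1- to 4-leaf plants. Response is a visual 0-100 rating versus controls, taken 13-15 days after treatment.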

soybean (Glycine max) = assay: Test C preemergence; conditions: Glycine max, pre-emergence, scale 0 to 100, read-out: Plant response rating, Soybean
Method in brief: as §1

[2] = system: Italian ryegrass (Lolium multiflorum); assay: Test C preemergence; conditions: Lolium multiflorum, pre-emergence, 336 h, scale 0 to 100, read-out: Plant response rating, Ryegrass, Italian
Method in brief: as §1

[3] = system: pigweed (Amaranthus retroflexus); assay: Test C preemergence; conditions: Amaranthus retroflexus, pre-emergence, 336 h, scale 0 to 100, read-out: Plant response rating, Pigweed
Method in brief: as §1

[4] = system: large (Lg) crabgrass (Digitaria sanguinalis); assay: Test C preemergence; conditions: Digitaria sanguinalis, pre-emergence, 336 h, scale 0 to 100, read-out: Plant response rating, Crabgrass, Large
Method in brief: as §1

[5] = system: velvetleaf (Abutilon theophrasti); assay: Test C preemergence; conditions: Abutilon theophrasti, pre-emergence, scale 0 to 100, read-out: Plant response rating, Velvetleaf
Method in brief: as §1

corn (Zea mays) = assay: Test C preemergence; conditions: Zea mays, pre-emergence, 336 h, scale 0 to 100
Method in brief: as §1

[6] = system: ragweed (common ragweed, Ambrosia elatior); assay: Test C preemergence; conditions: Ambrosia artemisiifolia, pre-emergence, 336 h, scale 0 to 100, read-out: Plant response rating, Ragweed
Method in brief: as §1

[7] = system: morningglory (Ipomoea coccinea); assay: Test C preemergence; conditions: Ipomoea, pre-emergence, 336 h, scale 0 to 100, read-out: Plant response rating, Morningglory
Method in brief: as §1

[8] = system: oilseed rape (Brassica napus); assay: Test C preemergence; conditions: Brassica napus, pre-emergence, scale 0 to 100, read-out: Plant response rating, Oilseed Rape
Method in brief: as §1

[9] = system: giant foxtail (Setaria faberii); assay: Test C preemergence; conditions: Setaria faberi, pre-emergence, 336 h, scale 0 to 100, read-out: Plant response rating, Foxtail, Giant
Method in brief: as §1

[10] = system: winter wheat (Triticum aestivum); assay: Test C preemergence; conditions: Triticum aestivum, pre-emergence, 336 h, scale 0 to 100, read-out: Plant response rating, Wheat
Method in brief: as §1

[11] = system: waterhemp (common waterhemp, Amaranthus rudis); assay: Test C preemergence; conditions: Amaranthus tuberculatus, pre-emergence, scale 0 to 100, read-out: Plant response rating, Waterhemp
Method in brief: as §1

[12] = system: yellow nutsedge (Cyperus esculentus); assay: Test C preemergence; conditions: Cyperus, pre-emergence, 336 h, scale 0 to 100, read-out: Plant response rating, Nutsedge, Yellow
Method in brief: as §1

[13] = system: johnsongrass (Sorghum halepense); assay: Test C preemergence; conditions: Sorghum halepense, pre-emergence, 336 h, scale 0 to 100, read-out: Plant response rating, Johnsongrass
Method in brief: as §1

[14] = system: galium (catchweed bedstraw, Galium aparine); assay: Test C preemergence; conditions: Galium, pre-emergence, 336 h, scale 0 to 100, read-out: Plant response rating, Galium
Method in brief: as §1

[15] = system: blackgrass (Alopecurus myosuroides); assay: Test C postemergence; conditions: Alopecurus myosuroides, post-emergence, 336 h, Postemergence, scale 0 to 100, read-out: Plant response rating, Blackgrass
Method in brief: as §1

[16] = system: velvetleaf (Abutilon theophrasti); assay: Test C postemergence; conditions: Abutilon theophrasti, post-emergence, Postemergence, scale 0 to 100, read-out: Plant response rating, Velvetleaf
Method in brief: as §1

[17] = system: chickweed (common chickweed, Stellaria media); assay: Test C postemergence; conditions: Stellaria media, post-emergence, Postemergence, scale 0 to 100, read-out: Plant response rating, Chickweed
Method in brief: as §1

[18] = system: giant foxtail (Setaria faberii); assay: Test C postemergence; conditions: Setaria faberi, post-emergence, 336 h, Postemergence, scale 0 to 100, read-out: Plant response rating, Foxtail, Giant
Method in brief: as §1

[19] = system: yellow nutsedge (Cyperus esculentus); assay: Test C postemergence; conditions: Cyperus, post-emergence, 336 h, Postemergence, scale 0 to 100, read-out: Plant response rating, Nutsedge, Yellow
Method in brief: as §1

[20] = system: lambsquarters (Chenopodium album); assay: Test C postemergence; conditions: Chenopodium album, post-emergence, 336 h, Postemergence, scale 0 to 100, read-out: Plant response rating, Lambsquarters
Method in brief: as §1

## N#Cc1cccc(Oc2ncc(Cl)cn2)c1Oc1cnc(Cl)cn1 [Compound 32, 2-[(5-chloro-2-pyrazinyl)oxy]-3-[(5-chloro-2-pyrimidinyl)oxy]benzonitrile]
[1]; 31 g ai/ha, preemergence
  pest or weed control at 31 g/ha: 70%
[1]; 62 g ai/ha, preemergence
  pest or weed control at 62 g/ha: 90%
[1]; 125 g ai/ha, preemergence
  pest or weed control at 125 g/ha: 95%
[1]; Preemergence, 16 g ai/ha
  pest or weed control at 16 g/ha: 0%
Soybean (Glycine max); 31 g ai/ha, preemergence
  plant injury at 31 g/ha: 45%
Soybean (Glycine max); 62 g ai/ha, preemergence
  plant injury at 62 g/ha: 45%
Soybean (Glycine max); 125 g ai/ha, preemergence
  plant injury at 125 g/ha: 90%
Soybean (Glycine max); Preemergence, 16 g ai/ha
  plant injury at 16 g/ha: 55%
[2]; 31 g ai/ha, preemergence
  pest or weed control at 31 g/ha: 50%
[2]; 62 g ai/ha, preemergence
  pest or weed control at 62 g/ha: 80%
[2]; 125 g ai/ha, preemergence
  pest or weed control at 125 g/ha: 90%
[2]; Preemergence, 16 g ai/ha
  pest or weed control at 16 g/ha: 5%
[3]; 31 g ai/ha, preemergence
  pest or weed control at 31 g/ha: 100%
[3]; 62 g ai/ha, preemergence
  pest or weed control at 62 g/ha: 100%
[3]; 125 g ai/ha, preemergence
  pest or weed control at 125 g/ha: 100%
[3]; Preemergence, 16 g ai/ha
  pest or weed control at 16 g/ha: 100%
[4]; 31 g ai/ha, preemergence
  pest or weed control at 31 g/ha: 98%
[4]; 62 g ai/ha, preemergence
  pest or weed control at 62 g/ha: 100%
[4]; 125 g ai/ha, preemergence
  pest or weed control at 125 g/ha: 100%
[4]; Preemergence, 16 g ai/ha
  pest or weed control at 16 g/ha: 98%
[5]; 31 g ai/ha, preemergence
  pest or weed control at 31 g/ha: 40%
[5]; 62 g ai/ha, preemergence
  pest or weed control at 62 g/ha: 75%
[5]; 125 g ai/ha, preemergence
  pest or weed control at 125 g/ha: 85%
[5]; Preemergence, 16 g ai/ha
  pest or weed control at 16 g/ha: 5%
Corn (Zea mays); 31 g ai/ha, preemergence
  Corn plant response rating (crop injury, 0 = no effect, 100 = complete kill) at 31 g/ha: 60%
Corn (Zea mays); 62 g ai/ha, preemergence
  Corn plant response rating (crop injury, 0 = no effect, 100 = complete kill) at 62 g/ha: 65%
Corn (Zea mays); 125 g ai/ha, preemergence
  Corn plant response rating (crop injury, 0 = no effect, 100 = complete kill) at 125 g/ha: 65%
Corn (Zea mays); Preemergence, 16 g ai/ha
  Corn plant response rating (crop injury, 0 = no effect, 100 = complete kill) at 16 g/ha: 5%
[6]; 31 g ai/ha, preemergence
  pest or weed control at 31 g/ha: 20%
[6]; 62 g ai/ha, preemergence
  pest or weed control at 62 g/ha: 10%
[6]; 125 g ai/ha, preemergence
  pest or weed control at 125 g/ha: 50%
[6]; Preemergence, 16 g ai/ha
  pest or weed control at 16 g/ha: 10%
[7]; 31 g ai/ha, preemergence
  pest or weed control at 31 g/ha: 10%
[7]; 62 g ai/ha, preemergence
  pest or weed control at 62 g/ha: 40%
[7]; 125 g ai/ha, preemergence
  pest or weed control at 125 g/ha: 90%
[7]; Preemergence, 16 g ai/ha
  pest or weed control at 16 g/ha: 20%
[8]; 31 g ai/ha, preemergence
  plant injury at 31 g/ha: 95%
[8]; 62 g ai/ha, preemergence
  plant injury at 62 g/ha: 95%
[8]; 125 g ai/ha, preemergence
  plant injury at 125 g/ha: 95%
[8]; Preemergence, 16 g ai/ha
  plant injury at 16 g/ha: 10%
[9]; 31 g ai/ha, preemergence
  pest or weed control at 31 g/ha: 98%
[9]; 62 g ai/ha, preemergence
  pest or weed control at 62 g/ha: 100%
[9]; 125 g ai/ha, preemergence
  pest or weed control at 125 g/ha: 100%
[9]; Preemergence, 16 g ai/ha
  pest or weed control at 16 g/ha: 85%
[10]; 31 g ai/ha, preemergence
  plant injury at 31 g/ha: 0%
[10]; 62 g ai/ha, preemergence
  plant injury at 62 g/ha: 0%
[10]; 125 g ai/ha, preemergence
  plant injury at 125 g/ha: 5%
[10]; Preemergence, 16 g ai/ha
  plant injury at 16 g/ha: 0%
[11]; 31 g ai/ha, preemergence
  pest or weed control at 31 g/ha: 100%
[11]; 62 g ai/ha, preemergence
  pest or weed control at 62 g/ha: 100%
[11]; 125 g ai/ha, preemergence
  pest or weed control at 125 g/ha: 100%
[11]; Preemergence, 16 g ai/ha
  pest or weed control at 16 g/ha: 100%
[12]; 31 g ai/ha, preemergence
  pest or weed control at 31 g/ha: 35%
[12]; 62 g ai/ha, preemergence
  pest or weed control at 62 g/ha: 60%
[12]; 125 g ai/ha, preemergence
  pest or weed control at 125 g/ha: 75%
[12]; Preemergence, 16 g ai/ha
  pest or weed control at 16 g/ha: 5%
[13]; 31 g ai/ha, preemergence
  pest or weed control at 31 g/ha: 85%
[13]; 62 g ai/ha, preemergence
  pest or weed control at 62 g/ha: 100%
[13]; 125 g ai/ha, preemergence
  pest or weed control at 125 g/ha: 100%
[13]; Preemergence, 16 g ai/ha
  pest or weed control at 16 g/ha: 40%
[14]; 31 g ai/ha, preemergence
  pest or weed control at 31 g/ha: 95%
[14]; 62 g ai/ha, preemergence
  pest or weed control at 62 g/ha: 95%
[14]; 125 g ai/ha, preemergence
  pest or weed control at 125 g/ha: 95%
[14]; Preemergence, 16 g ai/ha
  pest or weed control at 16 g/ha: 10%
[15]; 16 g ai/ha
  pest or weed control at 16 g/ha: 5%
[15]; 31 g ai/ha
  pest or weed control at 31 g/ha: 5%
[15]; 62 g ai/ha
  pest or weed control at 62 g/ha: 5%
[15]; 125 g ai/ha
  pest or weed control at 125 g/ha: 10%
[16]; 31 g ai/ha
  pest or weed control at 31 g/ha: 55%
[16]; 62 g ai/ha
  pest or weed control at 62 g/ha: 60%
[16]; 125 g ai/ha
  pest or weed control at 125 g/ha: 75%
[17]; 16 g ai/ha
  pest or weed control at 16 g/ha: 70%
[17]; 31 g ai/ha
  pest or weed control at 31 g/ha: 80%
[17]; 62 g ai/ha
  pest or weed control at 62 g/ha: 80%
[17]; 125 g ai/ha
  pest or weed control at 125 g/ha: 85%
[18]; 16 g ai/ha
  pest or weed control at 16 g/ha: 20%
[18]; 31 g ai/ha
  pest or weed control at 31 g/ha: 20%
[18]; 62 g ai/ha
  pest or weed control at 62 g/ha: 15%
[18]; 125 g ai/ha
  pest or weed control at 125 g/ha: 20%
[19]; 31 g ai/ha
  pest or weed control at 31 g/ha: 20%
[19]; 62 g ai/ha
  pest or weed control at 62 g/ha: 20%
[19]; 125 g ai/ha
  pest or weed control at 125 g/ha: 20%
[20]; 16 g ai/ha
  pest or weed control at 16 g/ha: 80%
[20]; 31 g ai/ha
  pest or weed control at 31 g/ha: 90%
[20]; 62 g ai/ha
  pest or weed control at 62 g/ha: 85%
[20]; 125 g ai/ha
  pest or weed control at 125 g/ha: 90%
